Results reported in PMC7395068, “The evolution of strategies to minimise the risk of human drug-induced liver injury (DILI) in drug discovery and development” (Archives of Toxicology, 2020).
Read-outs that look alike come from different tables or passages of the source.

How the values were obtained:
HepaRG spheroids [1] = tested on: HepaRG spheroids
HepG2 cells [2] = conditions: cited from earlier work
human hepatocytes = conditions: cited from earlier work
PHH spheroids = conditions: cited from earlier work
[3] = cited from earlier work
HepG2 cells [4] = conditions: cited from earlier work; remark: listed apart in the source
HepaRG spheroids [5] = test: Combined HCI (HCS) and cellular ATP 3D assay in HepaRG spheroids; conditions: HepaRG; for AC50 / minimal effective concentration: Homo sapiens
[6] = cited from earlier work; remark: listed apart in the source
PHH = conditions: cited from earlier work
hLiMTs [7] = test: Combined HCI (HCS) and cellular ATP 3D assay in hLiMTs; conditions: for AC50 / minimal effective concentration: Homo sapiens
[8] = cited from earlier work; remark: listed apart in the source
hLiMTs [9] = conditions: cited from earlier work
[10] = tested on: THLE-Null and THLE-3A4 cells; conditions: In vitro Assay; ref Gustafsson 2014; cited from earlier work
[11] = plasma free fraction; cited from earlier work
hLiMTs [12] = tested on: hLiMTs
[13] = Plasma free fraction (fu) and unbound Cmax (Cmax,u); assay type: in vitro ADME, human
Protocol: The prediction of DILI severity was evaluated further using the 3D combined HCI assays using plasma-free fraction. The majority of fu values were obtained from literature, when unavailable in-house prediction was utilised. Unbound plasma Cmax concentrations (Cmax,u) were derived by multiplying total plasma Cmax with the corresponding free fraction (fu) for each compound.

rBsep = conditions: In vitro Assay; ref Dawson 2012; cited from earlier work
[14] = In vitro Assay, ref Persson 2013
[15] = In vitro Assay, ref Proctor 2017

CCOC(=O)c1ncn2c1CN(C)C(=O)c1cc(F)ccc1-2 [flumazenil, reference compound]
DILI prediction HepaRG spheroids (HCS-MEC) (HepaRG spheroids [1]): -VE | Structural based (HCI) (HepG2 cells [2]; In vitro Assay, ref O'Brien 2006): -VE | DILI in vitro assay prediction, O'Brien (2006) (HepG2 cells [2]; Structural based (HCI), HepG2, ref O'Brien et al. 2006): -VE | Structural based (HCI) (human hepatocytes; In vitro Assay, ref Xu 2008): -VE | DILI in vitro assay prediction, Xu (2008) (human hepatocytes; Structural based (HCI), human hepatocytes, ref Xu et al. 2008): -VE | hLiMTs ATP <20 x Cmax (PHH spheroids; In vitro Assay, ref Vorrink 2018): -VE | DILI in vitro assay prediction, Vorrink (2018) (PHH spheroids; PHH spheroids, ATP, 14 days, IC20 < 20 × Cmax.tot, ref Vorrink et al. 2018): -VE | Assigned DILI category ([3]; Chen et al. 2016 or literature alignment, ref Chen et al. 2016): 1 | In vivo DILI ([3]; ref Dawson 2012): -VE | In vivo DILI ([3]; ref Gustafsson 2014): -VE | In vivo DILI ([3]; ref O'Brien 2006): -VE | In vivo DILI ([3]; ref Persson 2013): -VE | In vivo DILI ([3]; ref Proctor 2017): -VE | In vivo DILI ([3]; ref Vorrink 2018): -VE | In vivo DILI ([3]; ref Williams 2019): -VE | In vivo DILI ([3]; ref Xu 2008): -VE | Cluser analysis (HepG2 cells [4]; [14]): -VE | Structural based (HCI) (HepG2 cells [4]; [14]): -VE | DILI in vitro assay prediction, Persson (2013) (HepG2 cells [4]; Structural based (HCI), HepG2, ref Persson et al. 2013): -VE | HepaRG <25x Avg Cmax ATP (HepaRG spheroids [5]; ATP endpoint, cut-off <25x Avg Cmax): -ve | HepaRG <25x Avg Cmax HCS (HepaRG spheroids [5]; HCS endpoints, cut-off <25x Avg Cmax): -ve | HepaRG <25x Avg Cmax All (HepaRG spheroids [5]; all endpoints (ATP and HCS), cut-off <25x Avg Cmax): -ve | HepaRG Cmax max All (HepaRG spheroids [5]; all endpoints, Cmax max used): -ve | HepaRG Cmax min All (HepaRG spheroids [5]; all endpoints, Cmax min used): -ve | HepaRG <10 uM All (HepaRG spheroids [5]; all endpoints, cut-off <10 uM): -ve | DILI severity category (Chen et al. [2016]) ([6]; LTKB DILIrank category, ref Chen et al. 2016): No | DILI severity category (Chen 2016) ([6]; human DILI classification, LTKB DILIrank, ref Chen et al. 2016): No | DILI severity category ([6]; human DILI severity, ref Chen et al.): No | DILI +VE (5-8), DILI -VE (-4) ([6]; ref Chen 2016): -VE | DILI severity category ([6]; ref Chen 2016): vNo-DILI-Concern | PHH/100uM, Proctor (2017) (PHH; 2D PHH, ATP, IC50 threshold 100 µM, ref Proctor et al. 2017): -VE | PHH ATP <100uM (PHH; [15]): -VE | hLiMTs <25x Avg Cmax ATP (hLiMTs [7]; hLiMTs, ATP endpoint, cut-off <25x Avg Cmax): -ve | hLiMTs <25x Avg Cmax HCS (hLiMTs [7]; hLiMTs, HCS endpoints, cut-off <25x Avg Cmax): -ve | hLiMTs <25x Avg Cmax All (hLiMTs [7]; hLiMTs, all endpoints (ATP and HCS), cut-off <25x Avg Cmax): -ve | hLiMTs Cmax max All (hLiMTs [7]; hLiMTs, all endpoints, Cmax max used): -ve | hLiMTs Cmax min All (hLiMTs [7]; hLiMTs, all endpoints, Cmax min used): -ve | hLiMTs <10 uM All (hLiMTs [7]; hLiMTs, all endpoints, cut-off <10 uM): -ve | Cmax ([8]; read-out: Human plasma Cmax, total plasma Cmax.tot, median of 9 literature references): 1.12 µM | hLiMTs ATP <100uM (hLiMTs [9]; [15]): -VE | hLiMTs/100uM, Proctor (2017) (hLiMTs [9]; hLiMTs, ATP, IC50 threshold 100 µM, ref Proctor et al. 2017): -VE | THLE-Null [10]: -VE | fu [11]: 0.580 | DILI prediction hLiMTs (HCS-MEC) (hLiMTs [12]): -VE | Human plasma Cmax,u ([13]; unbound plasma Cmax): 0.650 µM | Inhibition of rBsep cutoff<1& cmax u>.2 (rBsep): -VE | Inhibition of rBsep cutoff<3 (rBsep): -VE

CO[C@@]12[C@H](COC(N)=O)C3=C(C(=O)C(C)=C(N)C3=O)N1C[C@@H]1N[C@@H]12 [mitomycin C]
HepaRG <10 uM All (HepaRG spheroids [1]): +ve (key: +ve: <10 uM) | HepaRG <100x Avg Cmaxu ATP (HepaRG spheroids [1]; human): +ve (key: +ve: <100x Avg Cmaxu) | HepaRG <100x Avg Cmaxu All (HepaRG spheroids [1]; human): +ve (key: +ve: <100x Avg Cmaxu) | HepaRG <100x Avg Cmaxu HCS (HepaRG spheroids [1]; human): +ve (key: +ve: <100x Avg Cmaxu) | HepaRG Cmax max All (HepaRG spheroids [1]; human): +ve | HepaRG Cmax min All (HepaRG spheroids [1]; human): +ve | AC50 (HepaRG spheroids [5]; read-out: ATP endpoint AC50): 400 nM | minimal effective concentration (HepaRG spheroids [5]; read-out: ATP endpoint MEC): 0.4 µM | AC50 (HepaRG spheroids [5]; read-out: HCS endpoint AC50): 400 nM | minimal effective concentration (HepaRG spheroids [5]; read-out: HCS endpoint MEC): 0.4 µM | PHH/100uM, Proctor (2017) (PHH): +VE (key: +VE: IC50 threshold of 100 µM) | AC50 (hLiMTs [7]; read-out: ATP endpoint AC50): 929 nM | minimal effective concentration (hLiMTs [7]; read-out: ATP endpoint MEC): 0.454 µM | AC50 (hLiMTs [7]; read-out: HCS endpoint AC50): 1090 nM | minimal effective concentration (hLiMTs [7]; read-out: HCS endpoint MEC): 0.399 µM | Cmax ([8]; human, in vivo): 7.1 µM | hLiMTs/100uM, Proctor (2017) (hLiMTs [9]): +VE (key: +VE: IC50 threshold of 100 µM) | hLiMTs <10 uM All (hLiMTs [12]): +ve (key: +ve: <10 uM) | hLiMTs <100x Avg Cmaxu ATP (hLiMTs [12]; human): +ve (key: +ve: <100x Avg Cmaxu) | hLiMTs <100x Avg Cmaxu All (hLiMTs [12]; human): +ve (key: +ve: <100x Avg Cmaxu) | hLiMTs <100x Avg Cmaxu HCS (hLiMTs [12]; human): +ve (key: +ve: <100x Avg Cmaxu) | hLiMTs Cmax max All (hLiMTs [12]; human): +ve | hLiMTs Cmax min All (hLiMTs [12]; human): +ve | Human plasma Cmax,u ([13]; human): 5.396 µM
